Assay results from US20250313900A1, “COMPOSITIONS AND THERAPEUTIC AGENTS FOR MODULATING INFLAMMATORY RESPONSES ON BOTH TUMOR AND IMMUNE CELLS” (THE METHODIST HOSPITAL, priority 2022, published 2025).

T1: Tumor necrosis factor receptor-associated factor-6 (TRAF6) (in HCC827-CT cells) (human, UniProt Q9Y4K3 1-522)
T1 sequence (looked up): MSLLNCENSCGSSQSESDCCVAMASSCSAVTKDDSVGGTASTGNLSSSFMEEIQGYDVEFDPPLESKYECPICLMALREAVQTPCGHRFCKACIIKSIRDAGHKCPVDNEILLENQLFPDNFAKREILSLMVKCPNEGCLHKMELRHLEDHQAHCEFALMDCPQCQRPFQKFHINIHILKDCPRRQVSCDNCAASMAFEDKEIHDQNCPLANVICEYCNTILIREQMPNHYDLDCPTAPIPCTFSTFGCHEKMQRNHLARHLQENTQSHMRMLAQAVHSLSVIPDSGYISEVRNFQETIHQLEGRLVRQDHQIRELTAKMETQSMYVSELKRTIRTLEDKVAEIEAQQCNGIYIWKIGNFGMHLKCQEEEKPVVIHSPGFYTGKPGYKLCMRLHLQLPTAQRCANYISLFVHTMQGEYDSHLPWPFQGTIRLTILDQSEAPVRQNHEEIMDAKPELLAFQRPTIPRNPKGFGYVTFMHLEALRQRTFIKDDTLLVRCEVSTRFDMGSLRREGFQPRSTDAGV


Columns and labels:
MHC II = conditions: IFNγ stimulation
[1] = target: T1, Tumor necrosis factor …; experiment: co-immunoprecipitation and western blot, HCC827-CT cells

| Molecule | higher levels of surface MHC class II in CMTM4 KO cells (MHC II) | binding result [1] |
| --- | --- | --- |
| CCN(CC)CCCC(C)Nc1ccnc2cc(Cl)ccc12 (centres unmarked) [chloroquine] | abolished |  |
| CMTM6 (in HCC827-CT cells) (other, human, UniProt Q9NX76 1-183, looked up) MENGAVYSPTTEEDPGPARGPRSGLAAYFFMGRLPLLRRVLKGLQLLLSLLAFICEEVVSQCTLCGGLYFFEFVSCSAFLLSLLILIVYCTPFYERVDTTKVKSSDFYITLGTGCVFLLASIIFVSTHDRTSAEIAAIVFGFIASFMFLLDFITMLYEKRQESQLRKPENTTRAEALTEPLNA |  | no binding |
